Values quoted from earlier work, collected in patent publication US5017613A, “Valproic acid preparations” (Sanofi, S. A., priority 1983, dated 1991).

Details: after oral administration

bioavailability in the blood of valproic acid: ~100%
Structure (SMILES): CCCC(CCC)C(=O)O [valproic acid, Dipropylacetic or valproic acid]
